Literature values as cited in US12640239B2, “Functional biomarkers for statin therapy in age-related macular degeneration (AMD)” (APELIOTUS TECHNOLOGIES, INC., priority 2017, dated 2026).

Test system: older adults with normal retinal health or AMD
Conditions: 30-day course of 50,000 international units of oral retinol, cited from earlier work

Compound: CC1=C(/C=C/C(C)=C/C=C/C(C)=C/CO)C(C)(C)CCC1 [retinol]
- Dark adaptation vs placebo group (30-day follow-up, 52 per group): significantly faster dark adaptation than the placebo group
- Visual acuity vs placebo group (30-day follow-up): no difference in visual acuity between the groups
- Improvement in dark adaptation after washout (after an additional 30-day washout period): reversed to the baseline level
